Test results published in patent US6602987B1, “Azobenzene derivatives as labeling agents and intermediates thereof” (Yeda Research and Development Co., Ltd., priority 1998, dated 2003).

Key:
[1] = tested on: affinity purified anti-HABA antibodies; assay: Spectral shift of the HABA chromophore upon interaction with affinity purified anti-HABA antibodies; format: binding, rabbit
avidin = target: T1, avidin (Gallus gallus, UniProt P02701); assay: Spectral shift of the HABA chromophore upon interaction with avidin; format: binding
T1 construct: purchased STC Laboratories (Winnipeg, Canada)
T1 sequence (P02701 25-152): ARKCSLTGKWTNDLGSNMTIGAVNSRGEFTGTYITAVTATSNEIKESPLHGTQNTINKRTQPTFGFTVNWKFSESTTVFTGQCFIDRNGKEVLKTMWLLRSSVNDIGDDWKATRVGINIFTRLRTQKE
Experimental: (§1) The degree of modification is calculated, after purification from side-products, on the basis of UV absorption at 356 nm in PBS, at 415 nm in basic environment, or at 504 nm after addition of excess of avidin in PBS.
(§2) Interaction of the HABAylated proteins with avidin or with anti-HABA antibodies is verified by following the characteristic shift of the absorption of the HABA chromophore. Table 4 depicts the spectroscopic characteristics in the spectra range of the HABA-derivatives as free molecules (not bound to proteins) upon interaction with avidin or specific affinity purified antibodies.

[2] = UV-Vis spectroscopic characteristics of free HABA and HABA-derivatives in buffer; format: physicochemical
Experimental: as §1, §2

[3] = +affinity purified anti-HABA in PBS, (1:1)

Row | ε[cm^−1M^−1] [1, 3] | λmax (nm) [1, 3] [nm] | ε[cm^−1M^−1] (avidin; +Avidin in PBS, (20:1)) | λmax (nm) (avidin; +Avidin in PBS, (20:1)) | ε500 nm of bound HABA (avidin; at 500 nm, HABA bound to nonlabeled avidin or anti-HABA antibodies) | SMILES | ε[cm^−1M^−1] at λmax ([2]; PBS) | λmax (nm) ([2]; PBS) | ε[cm^−1M^−1] at λmax ([1]; PBS/anti-HABA) | λmax (nm) ([1]; PBS/anti-HABA) | ε[cm^−1M^−1] at λmax (avidin; PBS/AVIDIN) | λmax (nm) (avidin; PBS/AVIDIN) | ε[cm^−1M^−1] at λmax ([2]; 0.1 M AcOH) | λmax (nm) ([2]; 0.1 M AcOH) | ε[cm^−1M^−1] at λmax ([2]; 0.1 M NaOH) | λmax (nm) ([2]; 0.1 M NaOH) | ε280 nm ([2]; at 280 nm)
1 | 50,000 cm^−1M^−1 | 482 | 35,500 cm^−1M^−1 | 500 | about 30,000 | O=C(O)c1ccccc1/N=N/c1ccc(O)cc1 [Compound 0, 4′-hydroxyazobenzene-2-carboxylic acid, reference compound] | 20,500 cm^−1M^−1 | 350 |  |  |  |  |  |  |  |  | 
2 |  |  |  |  |  | NCCCCCCNC(=O)CCc1cc(N=Nc2ccccc2C(=O)O)ccc1O [Compound 16, 3′-(6-aminohexylaminocarbonylethyl)-4′-hydroxy-azobenzene-2-carboxylic acid] | 12,900 cm^−1M^−1 | 356 | 50,000 cm^−1M^−1 | 482 | 30,000 cm^−1M^−1 | 504 | 12,500 cm^−1M^−1 | 356 | 15,000 cm^−1M^−1 | 420 | 3,300
3 |  |  |  |  |  | O=C(CCc1cc(N=Nc2ccccc2C(=O)O)ccc1O)NCCCCCCNC(=O)ON1C(=O)CCC1=O [Compound 17, 3′-(6-(succinimidyloxycarbonylamino)hexylaminocarbonylethyl)4′-hydroxy-azo-benzene-2-carboxylic acid] |  |  |  |  |  |  | 12,200 cm^−1M^−1 | 356 |  |  | 
